Results as given in US4404230A, “4-Hydroxy-1,2-Benzisothiazol-3(2H)-one-1,1-dioxides and salts thereof” (priority 1980, dated 1983).

Tests used:
[1] = Stability of the solid substance in daylight and at 60° C.; format: physicochemical; conditions: daylight and 60° C., absence and presence of light, 4 weeks
Procedure: For the stability test, substance B at a concentration of 1% was dissolved in 0.1 N hydrochloric acid and kept at room temperature for 27 days. […] The solid substance was furthermore tested in daylight and at 60° C. in the absence and in the presence of light for 4 weeks.

rats [2] = test: Effect on motility of rats (sedative or stimulating effect); format: in vivo, Chbb:THOM-rats; conditions: 100 mg/kg p.o.
Procedure: In analogy to the method described by Fuhrer and Feldhofen (Arzneimittel-Forschung 11, 1027, 1961) substance B was tested on 6 female Chbb:THOM-rats (SPF) having a body weight of 160-190 gm, after administration of 100 mg/kg p.o. in a suspension of 1% tylose. The motility of the rats in cages was measured for 30 minutes one hour after administration of the test compound. A control group received only tylose. The change in motility given in percent with regard to that of the control group was determined.

mice [3] = test: Effect on the duration of hexobarbital anesthesia in mice; format: in vivo, Chbb:NMRI-mice; conditions: 100 mg/kg p.o.
Procedure: According to Winter [Pharmacol. exp. Ther. 94, 7, (1948)], 100 mg/kg of substance B in a suspension of 1% tylose were administered perorally to 10 male Chbb:NMRI-mice (SPF) having a body weight of 20 to 26 gm. A control group received only the suspension agent. After 1 hour all animals were injected i.p. with 80 mg/kg of hexobarbital. The mice were put on a metal plate at 37° C. and the time from the beginning of the loss of the righting reflex until the recurrence of this reflex was measured as the duration of the anesthesia. This time difference was calculated in percent with regard to that of the control group.

mice [4] = test: Effect on maximum electroshock convulsions in mice; format: in vivo, Chbb:NMRI-mice; conditions: 200 mg/kg p.o.; for Number of protected animals: N = 10
Procedure: According to Swinyard, Brown and Goodman [J. Pharmacol. exp. Ther. 106, 319 (1952)], 200 mg/kg of substance B in aqua dist. solution were administered perorally to 10 male Chbb:NMRI-mice (SPF). After 30, 150 and 300 minutes tonic extensor spasms were induced by alternating current via head-electrodes (50 mA, 50 Hz, 2 sec. duration). Tonic extensor spasms of the extremities cannot be observed after treatment with substances having an anticonvulsive activity.

rats [5] = test: Effect on the kaolin edema in rats; format: in vivo, Chbb:THOM-rats; conditions: 100 mg/kg p.o.
Procedure: According to Hillebrecht [Arzneimittel-Forschung 4, 607 (1954)] an edema was induced in 20 Chbb:THOM-rats (SPF) of both sexes having a body weight of 125-150 gm by subplantar injection of 0.05 ml of a 10% kaolin suspension in the hind paw. 30 minutes before, 100 mg/kg of substance B as aqua dist. solution was orally administered to 10 animals. Ten control animals received only the solvent. The thickness of the paw was measured before the administration of the test compound and 5 hours after administration. The edema-altering effect was expressed in percent of the average degree of swelling of the control animals.

[6] = test system: Pseudomonas aeruginosa Hbg.; test: Bacteriostasis, agar diffusion test; format: cell-based; conditions: 16,000 μg/ml
Procedure: (§1) Substance B was tested with regard to its bacteria- and fungi-inhibiting effect by the serial dilution test and agar diffusion test.

Sc. pyogenes ATCC 8688 = test: Bacteriostasis, agar diffusion test; format: cell-based; conditions: 16,000 μg/ml
Procedure: as §1

[7] = test system: Serratia marcescens ATCC 13880; test: Bacteriostasis, agar diffusion test; format: cell-based; conditions: 16,000 μg/ml
Procedure: as §1

Aspergillus niger = test: Fungistasis, agar diffusion test; format: cell-based; conditions: 16,000 μg/ml
Procedure: as §1

[8] = test system: Candida albicans ATCC 10231; test: Fungistasis, agar diffusion test; format: cell-based; conditions: 16,000 μg/ml
Procedure: as §1

[9] = test system: Trychophyton mentagrophytes ATCC 9129; test: Fungistasis, agar diffusion test; format: cell-based; conditions: 16,000 μg/ml
Procedure: as §1

Mouse = test: Test for acute toxicity, mouse; conditions: for Animals which died: 10 animals
Procedure: (§2) The acute toxicity was determined after oral administration of substance B to male and female mice, rats and dogs. The substance was administered to mice and rats in the form of a suspension in tylose and to dogs in the form of a solution in water.

Rat = test: Test for acute toxicity, rat; conditions: for Animals which died: 6 animals
Procedure: as §2

[10] = test system: Salmonella typhimurium TA 100; test: Test for mutagenic effects (AMES-system); format: cell-based
Procedure: (§3) Compound B was tested according to the AMES-system [Mutation Research 31, 347-364 (1975)] for mutagenic properties. In order to show the whole spectrum of induced molecular DNA-damage (base substitutions, frame-shift mutations, deletions) the auxotrophic bacterial strains Salmonella typhimurium TA 98, TA 100, TA 1535, TA 1537 and TA 1538 were used as genetic indicators.
(§4) The tests for all microorganisms were carried out such that the effect of the test compound on a microsomal enzyme system together with the corresponding co-factors could be tested, and furthermore to determine the effect on enzyme induction. The tests were performed without an activating system and in the presence of an activating system. For the in-vitro-activation S-9 supernatants (fractions of the endoplasmatic reticulum) of normal, i.e. not pretreated rats and of rats induced by aroclor 1254 (500 mg/kg) wer used. For the S-9 induced fraction, 3 different concentrations were tested.
(§5) Compound B was tested at concentrations of 0.25, 2.5, 5 and 10 mg/plate.

[11] = test system: Salmonella typhimurium TA 1535; test: Test for mutagenic effects (AMES-system); format: cell-based
Procedure: as §3, §4, §5

[12] = test system: Salmonella typhimurium TA 1537; test: Test for mutagenic effects (AMES-system); format: cell-based
Procedure: as §3, §4, §5

[13] = test system: Salmonella typhimurium TA 1538; test: Test for mutagenic effects (AMES-system); format: cell-based
Procedure: as §3, §4, §5

[14] = test system: Salmonella typhimurium TA 98; test: Test for mutagenic effects (AMES-system); format: cell-based
Procedure: as §3, §4, §5

[15] = 10 g/kg oral, during the observation time
[16] = 0.25, 2.5, 5 and 10 mg/plate, with and without activating system

Question: With `O=C1NS(=O)(=O)c2cccc(O)c21.[Na]` as the compound, how does the “stability of solid substance” value [1] read?
Answer: The value was “No changes could be detected either”.

Question: And the “effect on motility of rats (in words)” value (rats [2])?
Answer: The value was “does not affect the motility of the rats”.

Question: And the Motility of rats (rats [2]; 60-90 min)?
Answer: Its Motility of rats is 235 ± 58 contacts/animal.

Question: And the “% motility” value (rats [2]; 60-90 min, vs control)?
Answer: Its value is 113%.

Question: And the “effect on duration of hexobarbital anesthesia (in words)” value (mice [3])?
Answer: Its value is “does not show any effect on the duration of hexobarbital anesthesia”.

Question: What about the Duration of anesthesia (mice [3]; hexobarbital 80 mg/kg i.p.) of the same compound?
Answer: Its Duration of anesthesia is 15.65 ± 6.32 min.

Question: What about the “Duration of anesthesia, % of control” value (mice [3]; hexobarbital 80 mg/kg i.p.) of the same compound?
Answer: The value was 106%.

Question: What about the “anticonvulsive activity (in words)” value (mice [4]) of the same compound?
Answer: Its value is “does not show any anticonvulsive activity”.

Question: What about the “Number of protected animals” value (mice [4]; 30 min) of the same compound?
Answer: The value was 0.

Question: What about the “Number of protected animals” value (mice [4]; 150 min) of the same compound?
Answer: The value was 0.

Question: And the “Number of protected animals” value (mice [4]; 300 min)?
Answer: The value was 0.

Question: And the “antiexudative effect (in words)” value (rats [5])?
Answer: Its value is “does not show any antiexudative effect in rats”.

Question: And the “Average degree of swelling” value (rats [5]; 5 hours)?
Answer: The value was 239.0.

Question: What about the Inhibition in % (rats [5]; 5 hours) of the same compound?
Answer: The Inhibition in % was 13.7%.

Question: And the inhibiting effect [6]?
Answer: Its inhibiting effect is “did not show any inhibiting effect”.

Question: What about the inhibiting effect (Sc. pyogenes ATCC 8688) of the same compound?
Answer: Its inhibiting effect is “did not show any inhibiting effect”.

Question: What about the inhibiting effect [7] of the same compound?
Answer: Its inhibiting effect is “did not show any inhibiting effect”.

Question: And the inhibiting effect (Aspergillus niger)?
Answer: Its inhibiting effect is “did not show any inhibiting effect”.

Question: And the inhibiting effect [8]?
Answer: The inhibiting effect was “did not show any inhibiting effect”.

Question: And the inhibiting effect [9]?
Answer: Its inhibiting effect is “did not show any inhibiting effect”.

Question: And the Animals which died (Mouse; 10 g/kg oral, 1 day)?
Answer: Its Animals which died is 0.

Question: What about the Animals which died (Mouse; 10 g/kg oral, 7 days) of the same compound?
Answer: The Animals which died was 0.

Question: And the Animals which died (Mouse; 10 g/kg oral, 14 days)?
Answer: Its Animals which died is 0.

Question: And the “deaths (in words)” value (Mouse; [15])?
Answer: The value was “no animals died”.

Question: And the behavior (Mouse; mouse, in vivo, po)?
Answer: The behavior was “completely normal behavior”.

Question: What about the toxic symptoms (Mouse; mouse, in vivo, po) of the same compound?
Answer: The toxic symptoms was “no toxic symptoms could be observed”.

Question: What about the Animals which died (Rat; 10 g/kg oral, 1 day) of the same compound?
Answer: Its Animals which died is 0.

Question: What about the Animals which died (Rat; 10 g/kg oral, 7 days) of the same compound?
Answer: Its Animals which died is 0.

Question: What about the Animals which died (Rat; 10 g/kg oral, 14 days) of the same compound?
Answer: The Animals which died was 0.

Question: What about the “deaths (in words)” value (Rat; [15]) of the same compound?
Answer: Its value is “no animals died”.

Question: What about the behavior (Rat; rat, in vivo, po) of the same compound?
Answer: Its behavior is “completely normal behavior”.

Question: And the toxic symptoms (Rat; rat, in vivo, po)?
Answer: Its toxic symptoms is “no toxic symptoms could be observed”.

Question: What about the spontaneous mutation rate [10, 16] of the same compound?
Answer: The spontaneous mutation rate was “did not lead to an increase in the spontaneous mutation rate”.

Question: What about the base substitutions ([10]; TA 100) of the same compound?
Answer: Its base substitutions is “does not induce base substitutions”.

Question: What about the spontaneous mutation rate [11, 16] of the same compound?
Answer: Its spontaneous mutation rate is “did not lead to an increase in the spontaneous mutation rate”.

Question: What about the base substitutions ([11]; TA 1535) of the same compound?
Answer: Its base substitutions is “does not induce base substitutions”.

Question: And the spontaneous mutation rate [12, 16]?
Answer: Its spontaneous mutation rate is “did not lead to an increase in the spontaneous mutation rate”.

Question: And the frame-shift mutations ([12]; TA 1537)?
Answer: The frame-shift mutations was “does not induce base substitutions (S. typhimurium TA 1535, TA 100) or frame-shift mutations”.

Question: And the spontaneous mutation rate [13, 16]?
Answer: The spontaneous mutation rate was “did not lead to an increase in the spontaneous mutation rate”.

Question: What about the frame-shift mutations ([13]; TA 1538) of the same compound?
Answer: Its frame-shift mutations is “does not induce base substitutions (S. typhimurium TA 1535, TA 100) or frame-shift mutations”.

Question: And the spontaneous mutation rate [14, 16]?
Answer: Its spontaneous mutation rate is “did not lead to an increase in the spontaneous mutation rate”.

Question: And the frame-shift mutations ([14]; TA 98)?
Answer: Its frame-shift mutations is “does not induce base substitutions (S. typhimurium TA 1535, TA 100) or frame-shift mutations”.
